# Patent US20240408081A1, “NOVEL SYNERGISTIC COMBINATIONS AND METHODS OF USE THEREOF FOR TREATING CANCERS” (UNIVERSITE DE BORDEAUX, priority 2021, published 2024)
# Tests used:
# [1] = tested on: NEM157i, SU-DIPG-IVi and NEM163i DMG cells; assay: Proliferation / cell viability assay (Sulforhodamine B) in DMG cell lines; type: cell-based, human
# Method: Cell growth was measured with the In vitro Toxicology Assay kit (Sulforhodamine B, Sigma Aldrich, Saint Quentin Fallavier, France) according to manufacturer's instructions. Cells were plated at a density of 2000 cells per well in 96-well plates in triplicates. Absorbance was measured at 565 nm using the CLARIOstar multiplate reader (BMG Labtech, Champigny-sur-Marne, France) at indicated time points.
# [2] = tested on: NEM157i and SU-DIPG-IVi DMG cells; assay: Apoptosis assay (Annexin V-PE / 7-AAD flow cytometry) in DMG cells; type: cell-based, human; details: 5 days of treatment
# Description: After exposure to drugs at indicated concentrations and times, cells were labeled with Annexin V-PE (BD Biosciences, Le Pont de Claix, France) and 7-AminoActinomycin D (7-AAD) (BD Bioscience) and analyzed using Flow Cytometry as described.
# [3] = tested on: H3K27me3 trimethylation; assay: Western blot of H3K27me3 in DMG cells; type: cell-based, human
# Method: Histone extraction was performed according to manufacturer's instructions (Histone Extraction Kit-ab113476, Abcam, Paris, France).
# Cell lysates were prepared by scraping cells using RIPA buffer (Sigma Aldrich) plus proteinase inhibitors (Sigma Aldrich) and centrifuged at 13000 g for 15 min at 4° C. Protein concentrations were measured using Pierce™ BCATM Protein Assays (ThermoFisher) and equal amounts of cell extracts were loaded for western blot analysis in 4-15% precasted polyacrylamide gel (Bio-Rad). Proteins were blotted on a nitrocellulose membrane (Transblot® Turbo midi-size, Bio Rad), blocked with the Odyssey blocking buffer (LI-COR Biosciences, ScienceTec, Les Ulis, France) or with BSA diluted in Tris-buffered saline with 0.1% Tween 20 (TBST) and probed with primary antibodies overnight at 4° C. […] Quantification was performed using ImageJ (National Institutes of Health, Bethesda, Maryland, USA).
# [4] = tested on: SU-DIPG-IVi-Luc cells implanted in the brainstem; assay: Orthotopic SU-DIPG-IVi-Luc brainstem glioma model in NSG mice; type: in vivo, NOD/LtSz-scid IL2R gamma (NSG) mice
# Method: For the mouse model, the immortalized SU-DIPG-IV line was used. SU-DIPG-IVi was transduced by a luciferase vector (Luc) with a MOI of 10. Two days after birth, 10^5 SU-DIPG-IVi-Luc cells in 2 μl were injected directly into the brainstem through the neck to a depth of 3 mm using a 2 μl NeuroSyringe (Hamilton Neuros, Dutscher, Bruxelles, Belgium) under anesthesia with 2% isoflurane and 50% oxygen enrichment. […] Tumor growth was evaluated non-invasively with anesthetized mice on a Biospace imager (Biospace Lab, Nesles la Vallée, France) 1-2 days after each treatment.
# Prior to treatments, mice were micro-tattooed (Aramis kit, BiosebLab, France). Animals were weighed and then receive an i.p. injection in the lower right quadrant following IACUC recommendations. A 1 ml tuberculin syringe and a 26-gauge needle were used with an injection volume of 200 μl for a 30 g mouse (3 mg/ml), adjusted to actual weight each week. Treatment was done 3 times a week, starting at day 8. Tumor growth was evaluated non-invasively on a Biospace imager (Biospace Lab, Nesles la Vallée, France). The entire procedure was carried out on a heating mat at 37° C. The animals were shaved and anesthetized in sterile condition (under PSM-2) in boxes dedicated to imaging. […]
# [5] = tested on: Huh6 cells; assay: Cell viability assay (CellTiter 96 AQueous One / MTS) in Huh6; type: cell-based, human
# Method: (§1) For 2D culture, a total of 2,000 cells/well for Huh6 and 3,000 cells/well for HepG2 were seeded in 96-well microtiter plates. Cell growth was measured at 24 h, 48h, 72h or 96h after genetic manipulation and at 48h or 72h after drug treatment using the in vitro MTS assay Kit or Sulforhodamine B (SRB, Absorbance at 565 nm) assay (Sigma) following manufacturer's instructions. For 3D culture, spheroids were formed as described above and microplates were incubated in an IncuCyte® S3 live cell analysis system and scanned every 8 hours. For genetic manipulation, the lentiviral transductions or the gene depletions were done before the plating. For drug treatments, depending on the experiment and the drug, spheroids were treated at day 4 or 5 for 48h or 72h. Cell viability assay in spheroids was done using 1 μM calcein AM (BioLegend) and 2 μM ethidium homodimer 1 (Sigma) for 30 minutes at 37° C. Spheroids were imaged using an IncuCyte® S3 live cell analysis system. For all cell viability assays, drugs were used at half maximal inhibitory concentration (IC50).
# [6] = tested on: Huh6 and HepG2 hepatoblastoma cells; assay: Growth and viability of hepatoblastoma cells (Huh6 and HepG2), 2D and 3D spheroid; type: cell-based, human
# Method: as §1
# [7] = tested on: H3K27me3, HMGCR; assay: Western blots of H3K27me3 and HMGCR in hepatoblastoma cells; type: cell-based, human; details: Huh6 and HepG2
# Method: Cells were lysed and total proteins were extracted 48 hours after treatment or 72 hours after genetic manipulation using a mixture of RIPA buffer (Sigma), protease inhibitors and phosphatase inhibitor cocktail (Roche). After protein quantification with BCA Protein Assays (ThermoFisher), 40 μg of total proteins were loaded in 4-15% pre-casted gels (Bio-Rad) for migration. Then, proteins were transferred onto a nitrocellulose membrane (Transblot® Turbo midi-size, Bio Rad). The membranes were blocked with 5% BSA or Odyssey blocking buffer (LI-COR Biosciences) and detected with the corresponding antibodies (Table 2). The revelation was performed by chemiluminescence using Fusion FX (Vilber Lourmat) and quantification was done using ImageJ software (National Institutes of Health, Bethesda, Maryland, USA).
# [8] = tested on: Huh6 cells; assay: Huh6 tumor xenografts in NSG mice; type: in vivo, NOD/LtSz-scid IL2R gamma null (NSG) mice; details: intraperitoneal; GSK-126 50 mg/kg, ATR 20 mg/kg 3-times a week; cisplatin 1 mg/kg twice a week
# Method: NOD/LtSz-scid IL2R gamma null (NSG) mice were bred in standard conditions compliant with regulatory bodies (French government). Sterilized food and water were accessible ad libitum. One million of Huh6 cells in 50% of Matrigel were subcutaneously injected in a total volume of 100 μl in the right flank of 8- to 9-week-old female mice (26-32 g; APAFIS #32917-2021121316283534 v2, Agreement #B33063916, Ministère de l'Enseignement Supérieur, de la Recherche et de l'Innovation).
# Tumor growth was monitored by caliper measurement until tumors reached an average volume of 250 mm3 (at day 12, see arrow). […] The vehicle (PBS with 5% DMSO) was injected 3-times a week. Tumor growth was monitored during 16 additional days until tumors control reached a size of 2000 mm3. Thus, all mice were euthanized. Blood was collected from all euthanatized mice and circulating ASAT, ALAT, creatinine, and urea were measured to evaluate the toxicity of the different treatments on the liver and kidneys.
smiles,measurement,setting,value
"CC[C@H](C)n1cc(C)c2c(C(=O)NCc3c(C)cc(C)[nH]c3=O)cc(-c3ccc(N4CCNCC4)nc3)cc21 [GSK-126, 1-[(2S)-butan-2-yl]-N-[(4,6-dimethyl-2-oxo-1H-pyridin-3-yl)methyl]-3-methyl-6-[6-(1-piperazinyl)-3-pyridinyl]-4-indolecarboxamide]",effect of low dose on DMG cell growth,[1]; 4 μM,does not affect
same,IC50,"[1]; Homo sapiens, three DMG cell lines, 72 h of treatment, read-out: IC50 (half maximal inhibitory concentration)",7.6 to 10.3 µM
same,doses with significant growth inhibition,[1]; NEM157i and SU-DIPG-IVi,above 6 μM
same,doses with total growth inhibition,[1]; NEM157i and SU-DIPG-IVi,above 25 μM
same,tumor cell apoptosis,[2],increase in tumor cell apoptosis
same,H3K27me3 trimethylation,"[3]; BXdmg1 cells, histone-purified protein extracts",reduced H3K27me3 trimethylation in a dose-dependent manner
same,H3K27me3 trimethylation,[3]; NEM157i and SU-DIPG-IVi DMG cells,efficiently inhibited
same,tumor growth (bioluminescence),"[4]; GSK-126 6 mg/kg, Atorvastatin 10 mg/kg, after four treatments",No significant differences
same,tumor growth (bioluminescence),"[4]; i.p. dose of 10 mg/kg, 3-times a week",significant growth reduction
same,IC25 dose,[5],3 µM
same,IC50,"[5]; Homo sapiens, HuH-6",6 µM
same,sensitivity of Huh6 and HepG2 cells in presence of Simvastatin or Atorvastatin,"[6]; 72 h, 4 μM Simvastatin or 8 μM Atorvastatin",significantly increased (at least twice)
same,IC50,"[6]; Homo sapiens, hepatoblastoma cells, 48 h",6 to 8 µM
same,trimethylation of histone H3 Lysine 27,[7]; GSK-126 at IC50,reduced
same,expression of HMGCR,[7],triggered
same,development of hepatoblastoma in mice (tumor volume),[8],no effect
